Source: patent US9839642B2, “Beta-tetrazolyl-propionic acids as metallo-beta-lactamase inhibitors” (priority 2014, dated 2017)
Where two headings read alike, the source gives them in different places.

Key:
NDM-1 = NDM-1 (Klebsiella pneumoniae, UniProt C7C422); assay: Enzyme activity: determination of IC50, fluorescence assay with CCF2-FA substrate; format: biochemical; details: CCF2-FA 1.25 μM, 2 hours at 25° C., read-out: NDM1 IC50
Outline: (§1)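 100 mM KH2PO4 pH 7 + 0.005% Tween-20 + 10 μM ZnSO4; CCF2-FA 1.25 μM; NDM-1 1 pM, IMP-1 2 pM, VIM-1 30 pM; cpd 20–0.00063 μM final, DMSO 1:50. 2 h, 25° C. Ex 405/em 460 nm; IC50, 4-param fit.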

VIM-1 = VIM-1 (Pseudomonas aeruginosa, UniProt A0A0F7KYQ8); assay: as above; format: biochemical; details: CCF2-FA 1.25 μM, 2 hours at 25° C., read-out: VIM1 IC50
Outline: as §1

IMP-1 = IMP-1 (Serratia marcescens, UniProt P52699); assay: as above; format: biochemical; details: CCF2-FA 1.25 μM, 2 hours at 25° C., read-out: IMP1 IC50
IMP-1, sequence (P52699 19-246, looked up, species assumed): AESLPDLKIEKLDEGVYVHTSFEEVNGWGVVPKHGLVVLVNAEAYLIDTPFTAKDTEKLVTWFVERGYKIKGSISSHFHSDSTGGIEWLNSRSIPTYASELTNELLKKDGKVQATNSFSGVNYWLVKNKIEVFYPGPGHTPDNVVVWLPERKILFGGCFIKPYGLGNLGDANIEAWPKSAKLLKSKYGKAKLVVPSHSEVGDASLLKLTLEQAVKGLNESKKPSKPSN
Outline: as §1

[1] = tested on: Klebsiella pneumoniae expressing VIM-1 (IHMA599644); assay: Antibiotic potentiation activity: synergistic concentration (MITC95) with imipenem, growth by OD600; format: cell-based
Outline: (§2)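 MITC95 = lowest inhibitor concentration giving 95% growth inhibition, read by absorbance after 22–24 h at 35° C. Compound range 200 μM to 0.195 μM, imipenem fixed at 1 or 4 μg/ml, bacteria in 1.1×CAMHB from saline suspension diluted 1:100.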

[2] = tested on: Escherichia coli expressing NDM-1 (CLB30016); assay: as above; format: cell-based
Outline: as §2

[3] = tested on: Serratia marcescens expressing IMP-1 (CL5741); assay: as above; format: cell-based
Outline: as §2

[4] = K. pneumoniae IHMA599644 (VIM-1), 95% inhibition of growth
[5] = E. coli CLB30016 (NDM-1), 95% inhibition of growth
[6] = S. marcescens CL5741 (IMP-1), 95% inhibition of growth
[7] = 95% inhibition of bacterial growth, strain IHMA599644
[8] = 95% inhibition of bacterial growth, strain CLB30016
[9] = 95% inhibition of bacterial growth, strain CL5741

NDM-1, sequence (C7C422 29-270, looked up, species assumed): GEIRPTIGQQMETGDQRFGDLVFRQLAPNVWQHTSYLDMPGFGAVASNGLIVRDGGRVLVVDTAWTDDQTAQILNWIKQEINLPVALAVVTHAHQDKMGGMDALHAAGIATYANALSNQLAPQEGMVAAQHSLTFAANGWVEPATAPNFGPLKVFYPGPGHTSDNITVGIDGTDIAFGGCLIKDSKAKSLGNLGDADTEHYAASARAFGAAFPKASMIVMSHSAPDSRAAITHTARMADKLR

SMILES | IC50 (NDM-1; NDM-1 enzyme 1 pM) [nM] | IC50 (VIM-1; VIM-1 enzyme 30 pM) [nM] | IC50 (IMP-1; IMP-1 enzyme 2 pM) [nM] | VIM1 KP599644 MITC95 [1, 4] [µM] | NDM1 EC30016 MITC95 [2, 5] [µM] | IMP1 SM5741 MITC95 [3, 6] [µM] | IC50 (NDM-1; enzyme 1 pM) [nM] | IC50 (VIM-1; enzyme 30 pM) [nM] | IC50 (IMP-1; enzyme 2 pM) [nM] | VIM1 KP599644 MITC95 [1, 7] [µM] | NDM1 EC30016 MITC95 [2, 8] [µM] | IMP1 SM5741 MITC95 [3, 9] [µM]
CCC[C@H](C(=O)O)[C@H](Cc1ccc(C2CCNCC2O)cc1)c1nnn[nH]1 (mixture of isomers) [Example 416, (2S)-2-((1S)-2-(4-(3-hydroxypiperidin-4-yl)phenyl)-1-(1H-tetrazol-5-yl)ethyl)pentanoic acid] | 280 | 20.8 | 1140 | 25 | 25 | 25 |  |  |  |  |  | 
CCC[C@@H](C(=O)O)[C@H](Cc1ccc(-c2ccc(N3CCNCC3)nc2)cc1)c1nnn[nH]1 [Example 57, (2R)-2-[(1S)-2-[4-(6-piperazin-1-ylpyridin-3-yl)phenyl]-1-(1H-tetrazol-5-yl)ethyl]pentanoic acid] |  |  |  |  |  |  | 650 | 170 | 2800 | >200 | 200 | 150
CCC[C@H](C(=O)O)[C@H](Cc1ccc(-c2ccc(CN)cc2)nc1)c1nnn[nH]1 [Example 96, (4-(5-((2S,3S)-3-carboxy-2-(1H-tetrazol-5-yl)hexyl)pyridin-2-yl)phenyl)methanaminium] |  |  |  |  |  |  | 280 | 9 | 3100 | 18.8 | 6.2 | 37
CCC[C@H](C(=O)O)[C@H](Cc1ccc(NCCN2CCOCC2)cc1)c1nn[nH]n1 [Example 216, (2S)-2-[(1S)-2-{4-[(2-morpholin-4-ylethyl)amino]phenyl}-1-(2H-tetrazol-5-yl)ethyl]pentanoic acid] |  |  |  |  |  |  | 140 | 110 | 490 | 150 | 31 | 18.8
CC(C)C[C@H](C(=O)O)[C@H](Cc1ccc(C2=CCNC2)c(F)c1)c1nn[nH]n1 [Example 452, 3-(4-((2S,3S)-3-carboxy-5-methyl-2-(2H-tetrazol-5-yl)hexyl)-2-fluorophenyl)-2,5-dihydro-1H-pyrrol-1-ium 2,2,2-trifluoroacetate] | 93.1 | 0.937 | 222 | 12.5 | 9.375 | 9.375 |  |  |  |  |  | 
CCC[C@H](C(=O)O)[C@H](Cc1ccc(C2=CCNC2)nc1)c1nnn[nH]1 [Example 164, (2S)-2-[(1S)-2-[6-(2,5-dihydro-1H-pyrrol-3-yl)pyridin-3-yl]-1-(1H-tetrazol-5-yl)ethyl]pentanoic acid] |  |  |  |  |  |  | 530 | 3.9 | 13000 | 18.8 | 9.4 | 50
CCC[C@H](C(=O)[O-])[C@H](Cc1ccc(C2CC[N+](C)(C)CC2)nc1)c1nnn[nH]1 [Example 291, (S)-2-((S)-2-(6-(1,1-dimethylpiperidin-1-ium-4-yl)pyridin-3-yl)-1-(1H-tetrazol-5-yl)ethyl)pentanoate] | 650 | 120 | 6500 | 38 | 3.1 | 50 |  |  |  |  |  | 
CC(C)C[C@H](C(=O)O)[C@H](Cc1ccc(NCC2CNCCC2O)nc1)c1nnn[nH]1 (stereo partly drawn) [Example 323, (2S)-2-[(1S)-2-(6-{[(4-hydroxypiperidin-3-yl)methyl]amino}pyridin-3-yl)-1-(1H-tetrazol-5-yl)ethyl]-4-methylpentanoic acid] | 120 | 17 | 930 | 18.8 | 1.6 | 6.2 |  |  |  |  |  | 
CCC[C@H](C(=O)O)[C@H](Cc1ccc(NCCN2CCCCC2)cc1)c1nn[nH]n1 [Example 217, (2S)-2-[(1S)-2-{4-[(2-piperidin-1-ylethyl)amino]phenyl}-1-(2H-tetrazol-5-yl)ethyl]pentanoic acid] |  |  |  |  |  |  | 500 | 38 | 2400 | 50 | 12.5 | 50
CCC[C@H](C(=O)O)[C@H](Cc1ccc(F)cc1)c1nnn[nH]1 [Example 261, (2S)-2-[(1S)-2-(4-fluorophenyl)-1-(1H-tetrazol-5-yl)ethyl]pentanoic acid] | 110 | 3.8 | 910 | 12.5 | 9.4 | 12.5 |  |  |  |  |  | 
CCC[C@H](C(=O)O)[C@H](Cc1cccc(-c2cnc(N)c(F)c2)c1)c1nn[nH]n1 [Example 356, (2S)-2-[(1S)-2-[3-(6-amino-5-fluoropyridin-3-yl)phenyl]-1-(2H-tetrazol-5-yl)ethyl]pentanoic acid] | 6.2 | 1.5 | 170 | 18.8 | 25 | 4.7 |  |  |  |  |  | 
CCC[C@H](C(=O)O)[C@H](Cc1ccc(-c2ccc(C3(O)CNC3)cc2)cn1)c1nnn[nH]1 [Example 166, (2S)-2-[(1S)-2-{5-[4-(3-hydroxyazetidin-3-yl)phenyl]pyridin-2-yl}-1-(1H-tetrazol-5-yl)ethyl]pentanoic acid] |  |  |  |  |  |  | 500 | 170 | 9300 | 38 | 9.4 | 100
CC(C)C[C@H](C(=O)O)[C@H](Cc1ccc(Br)c(F)c1)c1nnn[nH]1 [Example 23, (2S)-2-[(1S)-2-(4-bromo-3-fluorophenyl)-1-(1H-tetrazol-5-yl)ethyl]-4-methylpentanoic acid] |  |  |  |  |  |  | 20 | 1.4 | 88 | 31 | 6.3 | 3.1
CC(C)[C@H](C(=O)O)[C@H](Cc1csc(C2CCNC2)n1)c1nnn[nH]1 (stereo partly drawn) [Example 108, (2S,3S)-2-isopropyl-4-(2-(pyrrolidin-3-yl)thiazol-4-yl)-3-(1H-tetrazol-5-yl)butanoic acid] |  |  |  |  |  |  | 2800 | 750 | > 20000 | 37 | 12.5 | >200
CC(C)C[C@H](C(=O)O)[C@H](Cc1ccc(-c2ccnc(N)c2)nc1)c1nn[nH]n1 [Example 178, (2S)-2-[(1S)-2-(2′-amino-2,4′-bipyridin-5-yl)-1-(2H-tetrazol-5-yl)ethyl]-4-methylpentanoic acid] |  |  |  |  |  |  | 43 | 2.4 | 390 | 25 | 9.4 | 12.5
CCC[C@H](C(=O)O)[C@H](Cc1ccc(C)nc1)c1nnn[nH]1 [Example 85, (2S)-2-[(1S)-2-(6-methylpyridin-3-yl)-1-(1H-tetrazol-5-yl)ethyl]pentanoic acid] |  |  |  |  |  |  | 250 | 6.2 | 6500 | 18.8 | 0.78 | 100
CC(C)C[C@H](C(=O)O)[C@H](Cc1ccc(CCCN)c(F)c1)c1nn[nH]n1.O=C(O)C(F)(F)F [Example 440, 5-((2S,3S)-1-(4-(3-aminopropyl)-3-fluorophenyl)-3-carboxy-5-methylhexan-2-yl)-2H-tetrazol-3-ium 2,2,2-trifluoroacetate] | 37.5 | 1.62 | 124 | 12.5 | 6.25 | 6.25 |  |  |  |  |  | 
CCC[C@H](C(=O)O)[C@H](Cc1ccccc1C#N)c1nnn[nH]1 [Example 43, (2S)-2-[(1S)-2-(2-cyanophenyl)-1-(1H-tetrazol-5-yl)ethyl]pentanoic acid] |  |  |  |  |  |  | 22 | 3.2 | 1600 | 31 | 4.7 | 50
CCC[C@H](C(=O)O)[C@H](Cc1ccccc1-c1ccc(CO)cc1)c1nn[nH]n1 [Example 403, (2S)-2-[(1S)-2-[4′-(hydroxymethyl)biphen-yl-2-yl]-1-(2H-tetrazol-5-yl)ethyl]pentanoic acid] | 2.4 | 3.3 | 550 | 50 | 9.4 | 18.8 |  |  |  |  |  | 
